Source: EPA's ToxValDB 9.5
Several values for one entry are separate records, joined by “and”; a condition that tells them apart may be missing. Equal values may be shown once. Where a name gives a salt, the structure may show the parent alone.

What was measured:
Oryctolagus sp. [1] = system: Oryctolagus sp.
Mus musculus [2] = conditions: acute; oral
Rattus norvegicus [3] = conditions: for LD50 / LC50: acute
Cricetulus sp. [4] = conditions: duration: 5 days, oral, gavage, Hamster
Canidae [5] = conditions: subchronic
Rattus norvegicus [6] = conditions: developmental; oral; gavage; Embryotoxic effects
Homo sapiens [7] = conditions: clinical, oral
Canidae [8] = conditions: subchronic, oral, diet, M/F, Dog Other
Rattus norvegicus [9] = assay: LC100; higher = less toxic; conditions: acute; inhalation
Rattus norvegicus [10] = conditions: subchronic; duration: 13 weeks; oral; gavage; Liver: Hepatotoxicity
Cricetulus sp. [11] = conditions: subchronic; duration: 13 weeks; inhalation; intermittent; Hamster; Nasal cavity: Olfactory degeneration
Rattus norvegicus [12] = conditions: subchronic, oral, gavage, M/F
Rattus norvegicus [13] = conditions: subchronic, oral, M/F
Gallus sp. [14] = conditions: subchronic; duration: 3 months; oral; capsule; Nervous system: Ataxia + Nervous system: Delayed neurotoxicity + Whole body: Decreased weight
Gallus sp. [15] = conditions: subchronic; duration: 90 days; oral; F; ataxia, delayed neurotoxicity and weight loss
Oryctolagus sp. [16] = assay: LD0; higher = less toxic; conditions: acute; dermal; New Zealand
Rattus norvegicus [17] = conditions: M/F
Mouse, Rat = conditions: subchronic; duration: 90 days; inhalation; intermittent; Adrenal: Lesions + Blood: Hematological effects + Kidney: Lesions + Liver: Lesions
Homo sapiens [18] = assay: LD100; higher = less toxic; conditions: acute; oral
Mus musculus [19] = conditions: subchronic; oral; M/F; kidney effects (renal tubular pathology, reduced kidney weight)
Mus musculus [20] = conditions: subchronic; duration: 13 weeks; oral; gavage; M/F; CD1; Urinary
Homo sapiens [21] = conditions: clinical; oral; M; Restoration normal sexual desire, erection, ejaculation, and general well-being
Rattus norvegicus [22] = conditions: injection, subcutaneous
Dog, Rat = conditions: subchronic; duration: 13 weeks; oral; diet; Kidney: Effects + Liver: Effects
Homo sapiens [23] = conditions: clinical; oral; Hematologic
Monkey = conditions: chronic; duration: 5 years; inhalation; M/F; Rhesus; respiratory
Anatidae = conditions: oral
Homo sapiens [24] = conditions: clinical; oral; Blood: Increased prothrombin time
[25] = M, plasma cholinesterase inhibition
[26] = duration: 90 days, inhibition of brain cholinesterase
[27] = short-term, duration: 28 days, dermal, occlusive, New Zealand
[28] = subchronic, duration: 90 days, inhalation, Sprague-Dawley
[29] = duration: 90 days, diet, increased liver and kidney weight
[30] = duration: 13 weeks, Male reproductive toxicity and other effects (including decreased body weight gain), increased liver and kidney weights

COC(=O)CCSCCC(=O)OC [Dimethyl 3,3'-thiodipropionate]
NOAEL (Oryctolagus sp. [1]; developmental, duration: 13 days, oral, gavage, Dutch-belted): 1000 mg/kg-day | LD50 (Mus musculus [2]): > 2000 mg/kg | LD50 (Rattus norvegicus [3]; oral): > 2500 mg/kg | NOAEL (Rattus norvegicus [3]; reproduction developmental, duration: 13 weeks, oral, gavage, Sprague-Dawley): 350 mg/kg-day | NOAEL (Rattus norvegicus [3]; reproduction developmental, duration: 10 days, oral, gavage, F, Wistar): 1600 mg/kg-day | NOAEL (Rattus norvegicus [3]; subchronic, duration: 13 weeks, oral, gavage, Sprague-Dawley): 350 mg/kg-day | NOAEL (Cricetulus sp. [4]; developmental): 1600 mg/kg-day | NOAEL (Cricetulus sp. [4]; reproduction developmental, F): 1600 mg/kg-day

CCOP(=S)(OCC)SCSP(=S)(OCC)OCC [Ethion]
NOAEL (Canidae [5]; duration: 90 days, oral, M/F, Beagle, neurological): 0.06 mg/kg-day | NOAEL (Canidae [5]; duration: 90 days, oral, diet, M/F, Beagle, neurological): 0.06 mg/kg-day | NOAEL (Rattus norvegicus [6]): 0.2 mg/kg-day | LEL (Homo sapiens [7]; [25]): 0.075 mg/kg-day | NOEL (Homo sapiens [7]; [25]): 0.05 mg/kg-day | LEL (Canidae [8]; [26]): 0.71 mg/kg-day | NOEL (Canidae [8]; [26]): 0.06 mg/kg-day

CCOS(=O)(=O)OCC [Ethyl sulfate (Et2SO4)]
LD50 (Oryctolagus sp. [1]; acute, dermal): 706 mg/kg | LC50 (Rattus norvegicus [3]; inhalation): ≥ 1580 mg/m3 and ≤ 3150 mg/m3 | LD50 (Rattus norvegicus [3]; injection, subcutaneous): 350 mg/kg | LD50 (Rattus norvegicus [3]; oral): 880 mg/kg | LC100 (Rattus norvegicus [9]): 3150 mg/m3

O=Cc1ccco1 [Furfural]
LOAEL (Rattus norvegicus [10]): 7.9 mg/kg-day | NOAEL (Cricetulus sp. [11]): 78.6 mg/m3 | NOEL (Rattus norvegicus [12]; duration: 13 weeks, Fischer 344, Deaths + Absolute Organ Weight: Kidney increase, Liver increase + Relative Organ Weight: Kidney increase, Liver increase + Histopathology: …): < 11 mg/kg-day | LOAEL (Rattus norvegicus [13]; hepatocellular vacuolization): 11 mg/kg-day

CCCCSP(SCCCC)SCCCC [Merphos]
LD50 (Rattus norvegicus [3]; oral, gavage, Crl): 2480 mg/kg | NOEL (Gallus sp. [14]): 0.1 mg/kg-day | LOAEL (Gallus sp. [15]): 0.5 mg/kg-day | NOEL (Gallus sp. [15]): 0.1 mg/kg-day

CSSC [Methyl disulfide]
LOAEL (Oryctolagus sp. [1]; [27]): 106 mg/kg-day | NOAEL (Oryctolagus sp. [1]; [27]): 10.6 mg/kg-day | LC50 (Rattus norvegicus [3]; inhalation, Sprague-Dawley): 3100 mg/m3 | LD50 (Rattus norvegicus [3]; oral, gavage, Sprague-Dawley): ≥ 290 mg/kg and ≤ 500 mg/kg | LD50 (Rattus norvegicus [3]; oral, gavage, Wistar): 190 mg/kg | NOAEL (Rattus norvegicus [3]; developmental, duration: 10 days, inhalation, Crl:CD(SD) BR): 57.8 mg/m3 | NOAEL (Rattus norvegicus [3]; reproduction developmental, duration: 10 days, inhalation, F, Crl:CD(SD) BR): < 38.5 mg/m3 | LOAEL (Rattus norvegicus [3]; [28]): 193 mg/m3 | NOAEL (Rattus norvegicus [3]; [28]): 38.5 mg/m3 | LD0 (Oryctolagus sp. [16]): ≥ 2000 mg/kg

O=[N+]([O-])c1ccccc1 [Nitrobenzene]
LOAEL (Rattus norvegicus [17]; subchronic, duration: 90 days, inhalation, F344 / Sprague-Dawley, hematological): 25.2 mg/m3 | LOAEL (Mouse, Rat): 25 mg/m3 | NOEL (Rattus norvegicus [12]; Fischer 344, Deaths + Body Weight Changes: decrease + Food Consumption: decrease + Hematology: RBC decrease, WBC increase, , Hgb decrease, , Hct decrease…): < 5 mg/kg-day | NOEL (Rattus norvegicus [12]; Sprague-Dawley, Deaths + Clinical Observation: Piloerection, salivation, emacation Anemia, torticollis, rotating movement, abnormal gait + Body Weight …): < 20 mg/kg-day

CCCCCCCCCCCCCCCCCC(=O)O [Octadecanoic acid]
LD50 (Rattus norvegicus [3]; oral): 4600 mg/kg | LD100 (Homo sapiens [18]): 14300 mg/kg

c1cc2ccc3cccc4ccc(c1)c2c34 [Pyrene]
LOAEL (Mus musculus [19]): 125 mg/kg-day | NOAEL (Mus musculus [19]): 75 mg/kg-day | NOAEL (Mus musculus [20]): 75 mg/kg-day

C[C@]12CC[C@H]3[C@@H](CCC4=CC(=O)CC[C@@]43C)[C@@H]1CC[C@@H]2O [Testosterone]
NOEL (Homo sapiens [21]): 1.7 mg/kg-day | NOEL (Rattus norvegicus [22]; Hershberger, duration: 7 days, Sprague-Dawley, active + Androgenic + androgenic): 0.1 mg/kg-day | LEL (Rattus norvegicus [22]; uterotrophic, duration: 3 days, Active): 0.2 mg/day

Cc1cc(Cl)ccc1OCCCC(=O)O [Thitrol]
NOEL (Dog, Rat): 12 mg/kg-day | LEL (Rattus norvegicus [13]; [29]): 40 mg/kg-day | NOEL (Rattus norvegicus [13]; [29]): 12 mg/kg-day | LEL (Canidae [8]; [30]): 40 mg/kg-day | NOEL (Canidae [8]; [30]): 12 mg/kg-day

O=[N+]([O-])OCC(CO[N+](=O)[O-])O[N+](=O)[O-] [Trinitroglycerin]
LOAEL (Homo sapiens [23]): 0.036 mg/kg-day

[U] [Uranium]
LOAEL (Monkey): 5.1 mg/m3 | LOAEL (Rattus norvegicus [17]; chronic, duration: 91 days, oral, drinking water, Sprague-Dawley, renal): 0.06 mg/kg-day | LOAEL (Canidae [5]; duration: 5 weeks, inhalation, unknown, not reported, renal): 0.15 mg/m3 | NOAEL (Canidae [5]; duration: 5 weeks, inhalation, unknown, unspecified, renal): 1.1 mg/m3 | NOAEL (Anatidae): 16 mg/kg-day

CC(=O)CC(c1ccccc1)c1c(O)c2ccccc2oc1=O (stereo not drawn) [Warfarin]
LOAEL (Homo sapiens [24]): 2 mg/day | LOAEL (Homo sapiens [7]; M/F, increased prothrombin time): 0.029 mg/kg-day
